The source of these data is EP0701444B1, “METHODS AND COMPOSITIONS FOR INDUCING SLEEP” (Purdue Pharma Ltd., priority 1993, dated 1994).

The target in series [1] is steroid site on the GABAA receptor-chloride channel complex. In words: [35S]TBPS binding assay. Further details: species or system Male Sprague-Dawley rats. As to conditions: inhibition of [35S]TBPS (2 nM) binding, rat cerebral cortex P2 membranes, 5 µM GABA, 90 minute incubation at 22°C. As to the method: TBPS binding assays were conducted according to the following procedures, which are described in Gee, K.W.; Lawrence, L.J.; and Yamamura, H. I., "Modulation of the Chloride Ionophore by Benzodiazepine Receptor Ligands Influence of Gamma-Aminobutyric Acid and Ligand Efficacy," Molecular Pharmacology, 30:218, 1986. Male Sprague-Dawley rats (200-250g) were anesthetized with carbon dioxide and decapitated. The rats' brains were removed and the cerebral cortices were dissected and homogenized in 10 volumes of 0.32 M sucrose. Tissue was centrifuged at 1000 x g for 10 minutes and the resultant supernatant was centrifuged at 9,000 g for 20 minutes. The resultant pellet was resuspended in 10 volumes of 200 mM NaCl/50 mM Na-K phosphate pH 7.4 buffer (binding buffer) and then centrifuged at 9,000 x g for 10 minutes. This washing procedure was repeated twice and the final P2 pellet was resuspended in the binding buffer. For the binding assay, [^35S] TBPS (2 nM) was co-incubated in binding buffer with P2 membranes and 5 µM GABA and either 1) no additions to measure total binding; 2) 2 µM unlabeled TPBS to measure nonspecific binding; 3) the neurosteroid ranging in concentration from 1 Nm to 10µM. Following a 90 minute incubation at 22°C, the suspension was filtered and the bound radioactivity was determined by liquid scintillation counting. […] A lower IC50 indicates higher affinity for the steroid site on the GABAA receptor-chloride channel complex. Table 1 gives the IC50 values of representative steroids used in the present invention.

Another series deals with rats. Description: Rat sleep-wake bioassay (EEG, EMG, locomotor activity, body temperature). As to conditions: for reduction in locomotor activity (LMA) over time: compared to Triazolam and Zolpidem; for LMA versus vehicle control: administered at CT-5, first hour after treatment. The format is in vivo, Wistar rats. As to the method:
Rat preparation, monitoring, and analysis of the data was conducted as described below. […] Body temperature and locomotor activity were monitored via a miniature transmitter (Minimitter) surgically placed in the abdomen. The cranial implant consisted of stainless steel screws (2 frontal [+3.9 AP form bregma, ±2.0 ML] and two occipital [-6.4 AP, ±5.5 ML]) for EEG recording. Two Teflon-coated steel wires were positioned under the nuchal trapezoid muscles for EMG recording. All leads were soldered to a miniature connector prior to surgery, and chemically sterilized in Glutarex (3M Co.). The implant assembly was affixed to the skull with dental acrylic. A minimum of three weeks was allowed for recovery.
Each rat was permanently housed in its own individual recording cage located within separate, ventilated compartments of custom-designed stainless steel cabinets. Each Nalgene microisolator cage, which is an individual recording cage, was enhanced with a filter-top riser and swivel-commutator. Food and water were available ad libitum. […] Animals were undisturbed for three days both before and after treatments. In practice, animals were undisturbed during the weekend. Treatments were administered on Monday evening or Tuesday morning, and the animals were again left undisturbed until Friday, when cages were cleaned and the data copied off the computers.
The computers monitored the EEG, EMG, body temperature and non-specific locomotor activity (LMA) via telemetry, and drinking activity from 48 rats simultaneously. The computer classified the arousal state every 10 seconds using pattern-matching algorithms which included behavior-dependent contextual rules. Drinking and LMA were recorded every 10 seconds, while body temperature was recorded every minute.
Therefore, time of treatment is important. By administering the drug at CT-18, which is the peak of the rat's activity dominated period, the natural tendency for the rats to sleep at lights on ([…] clock time or Circadian Time, CT-0) cannot mask the hypnotic activity of the drug. By administering the drug at CT-5 when the propensity for REM sleep is greatest, the drug's effect on REM sleep can be measured more accurately. The activity dominated period begins when the lights are turned off at CT-12 or 15:00 clock time on the Figures.
The drugs and controls were injected intraperitoneally or administered orally in a volume of 1 ml/kg or […], respectively, under dim red illumination for the CT-18 studies or under regular light for the CT-5 studies.
A matched control group, N=20, was selected from a pool of 60 available control candidates. These matched control groups were constructed as follows.

The next series can be described thus: Solubility in water. It counts as physicochemical. As to conditions: read-out: soluble in water.
Where [2] appears, read: administered at CT-18, first few hours after administration.

Entries after “also recorded” stand apart in the source; their conditions may differ. Read-outs that look alike come from different tables or passages of the source. A value given as a limit tells only on which side of the number the result lay.

For orientation: IC50 means the concentration that gives 50% inhibition. A lower IC50 goes with inhibition by little substance. `CC(=O)[C@H]1CC[C@H]2[C@@H]3CC[C@@H]4C[C@H](O)CC[C@]4(C)[C@H]3CC[C@]12C` [3α-hydroxy-5β-pregnan-20-one] showed an IC50 in series [1] of 25 nM. Further, the body temperature result in the series on rats is “tends not to affect body temperature”. Moreover, in the series with rats, the “duration of uninterrupted NREM sleep (sleep bout length)” value was “strong increase”. Also, the “rebound insomnia / rebound wakefulness / rebound effects” value in the series on rats is recorded as “not producing rebound wakefulness”. For the same compound, the results for the “reduction in locomotor activity (LMA) over time” value with rats (10 mg/kg) and in the series on rats (30 mg/kg) were “no reduction” and “moderately smaller reduction”, respectively. The “rebound reduction of NREM sleep” value in the series with rats (CT-5 or CT-18, any dose) is “no rebound reduction of NREM sleep”. The NREM sleep result is “potent at both CT-5 and CT-18; also recorded: potent NREM-promoting effect” in the series on rats (administered at CT-5 or CT-18, listed as Pregnanolone); “effective in promoting NREM sleep” in the series on rats (administered at CT-5 or CT-18, listed as pregnanolone). The REM sleep result in the series with rats (listed as Pregnanolone) is “slight REM-interference”; in the series with rats (listed as pregnanolone), “lack an inhibitory effect on REM sleep”.

As to `Cc1ccc(-c2nc3ccc(C)cn3c2CC(=O)N(C)C)cc1` [Zolpidem, reference compound], in the series with rats, the “LMA after the hypnotic action has worn off” value was “continues to depress LMA; also recorded: reduced body temperature and locomotor activity”; the REM sleep result is on record as “strongly interfered with REM sleep”; the body temperature entry is “affect body temperature; also recorded: reduced body temperature”; the “rebound insomnia / rebound wakefulness / rebound effects” value was “did not produce rebound insomnia”. Besides, the “LMA versus vehicle control” value in the series with rats was “reduced LMA below vehicle control levels”. Besides, in the series on rats (administered at CT-5), the “NREM sleep / hypnotic effect” value is recorded as “unable to effectively induce NREM sleep” and the REM sleep result was “interferes with REM sleep”. For the same compound, the REM sleep entry in the series with rats (setting [2]) is reported as “reduced REM sleep”.

Turning to `Cc1nnc2n1-c1ccc(Cl)cc1C(c1ccccc1Cl)=NC2` [Triazolam, reference compound], in the series with rats, the “LMA after the hypnotic action has worn off” value is “reduced body temperature and locomotor activity”; the body temperature entry is “affect body temperature; also recorded: reduced body temperature”; the “LMA versus vehicle control” value is “reduced LMA below vehicle control levels”. Further, in the series with rats (administered at CT-5), the “NREM sleep / hypnotic effect” value is on record as “no hypnotic effect”. Further, the REM sleep result with rats (setting [2]) is listed as “reduced REM sleep”.

In turn, `C#C[C@@]1(O)CC[C@@]2(C)[C@H](CC[C@@H]3[C@@H]2CC[C@]2(C)[C@@H](C(C)=O)CC[C@@H]32)C1` [3β-ethynyl-3α-hydroxy-5β-pregnan-20-one] came in with an IC50 in series [1] of 39 nM. In the series with rats, the REM sleep entry was “lack an inhibitory effect on REM sleep”, the body temperature result was “minimal effect on body temperature” and the “duration of uninterrupted NREM sleep (sleep bout length)” value was “strong increase”. Also, the “reduction in LMA over time” value with rats (18 mg/kg at CT-18) is given as “moderately smaller reduction”. Besides, in the series with rats (administered at CT-18), the “rebound reduction of NREM sleep” value is recorded as “no rebound reduction of NREM sleep”.

Take `C#C[C@@]1(O)CC[C@@]2(C)[C@H](CC[C@@H]3[C@@H]2CC[C@]2(C)[C@@H](C(=O)COC(=O)CCC(=O)O)CC[C@@H]32)C1` [Sodium 3α,21-dihydroxy-3β-ethynyl-5β-pregnan-20-one 21-hemisuccinate]: the solubility in the series “Solubility in water” was greater than 20 mg/mL.

For `Cc1cccc([C@H](C)c2cnc[nH]2)c1C` [Dexmedetomidine, reference compound], in the series on rats, the REM sleep result is reported as “strongly interfered with REM sleep” and the “rebound insomnia / rebound wakefulness / rebound effects” value is on record as “strong rebound effects”.

As for `C#C[C@@]1(O)CC[C@@]2(C)[C@@H](CC[C@@H]3[C@@H]2CC[C@]2(C)[C@@H](C(C)=O)CC[C@@H]32)C1` [3β-ethynyl-3α-hydroxy-5α-pregnan-20-one, 3β-Ethynyl-3α-hydroxy-5α-pregnan-20-one], the REM sleep entry with rats is recorded as “slight REM-interference”. Also, the NREM sleep entry in the series on rats (administered at CT-5 or CT-18) is on record as “potent NREM-promoting effect”.
